Columns and labels:
SK-OV-3 = assay: SRB cytotoxicity screening assay (Ovarian)
MDA-N = assay: SRB cytotoxicity screening assay (Breast Cancer)
MDR+ cell line = assay: Multidrug resistant cell line screening (MDR ratio); type: cell-based
Text: The compound of the present invention was further tested on multidrug resistant cell lines. The resistance of cancer cells to multiple chemotherapeutic drugs which are structurally unrelated has been termed “multidrug resistance.” In the past several years, several mechanisms of multidrug resistance have been described, including the expression of a cell surface multidrug efflux pump (P-glycoprotein or the multidrug transporter), altered glutathione metabolism, reduced activity of topoisomerase II, and various less clearly defined changes in cellular proteins. Because of evidence that expression of P-glycoprotein is associated with drug-resistance in cancer, P-glycoprotein has been studied extensively from the point of view of its biochemistry and mechanism of action in order to develop inhibitors which can be used clinically to reverse drug resistance of cancers in patients. The clinical significance of the other mechanisms of multidrug resistance are less well-established, but many model systems indicate that they may contribute to clinical resistance.

SF-295 = assay: SRB cytotoxicity screening assay (CNS Cancer)
SK-BR-3 = assay: SRB cytotoxicity screening assay (Breast Cancer)
CAKI-1 = assay: SRB cytotoxicity screening assay (Renal Cancer)
MDA-MB-435 = assay: SRB cytotoxicity screening assay (Breast Cancer)
SK-MEL-28 = assay: SRB cytotoxicity screening assay (Melanoma)
SF-268 = assay: SRB cytotoxicity screening assay (CNS Cancer)
ACHN = assay: SRB cytotoxicity screening assay (Renal Cancer)
SNB-75 = assay: SRB cytotoxicity screening assay (CNS Cancer)
MAXF 401 = assay: SRB cytotoxicity screening assay (Breast Cancer); type: cell-based; details: MAXF 401 (Breast Cancer), 48 hour incubation
NCI-H23 = assay: SRB cytotoxicity screening assay (Non-Small Cell Lung Cancer)
SK-MEL-5 = assay: SRB cytotoxicity screening assay (Melanoma)
CCRF-CEM = details: human, 48 h
[1] = tested on: cell line panel (60 lines, nine disease-related subpanels)

For `CCCCCC(=O)O[C@H]1C[C@H]2OC[C@@]2(OC(C)=O)[C@H]2[C@H](OC(=O)c3ccccc3)[C@]3(O)C[C@H](OC(=O)[C@H](O)[C@@H](NC(=O)c4ccccc4)c4ccccc4)C(C)=C([C@@H](OC(C)=O)C(=O)[C@]12C)C3(C)C` [7-hexanoyltaxol], the GI50 (SK-OV-3; Homo sapiens, SK-OV-3, 48 h, read-out: Log10 GI50 (converted)) was under 0.01 µM, the CC50 (SK-OV-3; Homo sapiens, SK-OV-3, 48 h, read-out: Log10 LC50 (converted)) was 91.2 µM and the “Log10 TGI” value (SK-OV-3; SK-OV-3 (Ovarian), PG=0, 48 hour incubation) was −4.84 molar. For the same molecule, the GI50 (MDA-N; Homo sapiens, MDA-N, 48 h, read-out: Log10 GI50 (converted)) was under 0.01 µM, the CC50 (MDA-N; Homo sapiens, MDA-N, 48 h, read-out: Log10 LC50 (converted)) was under 0.01 µM and the “Log10 TGI” value (MDA-N; MDA-N (Breast Cancer), PG=0, 48 hour incubation) was under −8.00 molar. The “MDR (ratio of two IC50 values, numerator is an MDR+ cell line)” value (MDR+ cell line; higher numbers = less effective vs. MDR cells) was 1, the “effectiveness against multidrug resistant cell lines compared with paclitaxel” value (MDR+ cell line; multidrug resistant cell lines) was “vastly more effective than paclitaxel” and the GI50 (SF-295; Homo sapiens, SF-295, 48 h, read-out: Log10 GI50 (converted)) was under 0.01 µM. For the same molecule, the CC50 (SF-295; Homo sapiens, SF-295, 48 h, read-out: Log10 LC50 (converted)) was over 100 µM, the “Log10 TGI” value (SF-295; SF-295 (CNS Cancer), PG=0, 48 hour incubation) was −6.41 molar and the GI50 (SK-BR-3; Homo sapiens, SK-BR-3, 48 h, read-out: Log10 GI50 (converted)) was under 0.01 µM. For the same molecule, the CC50 (SK-BR-3; Homo sapiens, SK-BR-3, 48 h, read-out: Log10 LC50 (converted)) was over 100 µM, the “Log10 TGI” value (SK-BR-3; SK-BR-3 (Breast Cancer), PG=0, 48 hour incubation) was −6.04 molar and the “Log10 TGI” value (CAKI-1; CAKI-1 (Renal Cancer), PG=0, 48 hour incubation) was −4.52 molar. It also gave a GI50 (CAKI-1; Homo sapiens, CAKI-1, 48 h, read-out: Log10 GI50 (converted)) of 0.263 µM, a CC50 (CAKI-1; Homo sapiens, CAKI-1, 48 h, read-out: Log10 LC50 (converted)) of over 100 µM and a GI50 (MDA-MB-435; Homo sapiens, MDA-MB-435, 48 h, read-out: Log10 GI50 (converted)) of under 0.01 µM. For the same molecule, the CC50 (MDA-MB-435; Homo sapiens, MDA-MB-435, 48 h, read-out: Log10 LC50 (converted)) was under 0.01 µM, the “Log10 TGI” value (MDA-MB-435; MDA-MB-435 (Breast Cancer), PG=0, 48 hour incubation) was under −8.00 molar and the GI50 (SK-MEL-28; Homo sapiens, SK-MEL-28, 48 h, read-out: Log10 GI50 (converted)) was under 0.01 µM. For the same molecule, the CC50 (SK-MEL-28; Homo sapiens, SK-MEL-28, 48 h, read-out: Log10 LC50 (converted)) was over 100 µM, the “Log10 TGI” value (SK-MEL-28; SK-MEL-28 (Melanoma), PG=0, 48 hour incubation) was −4.33 molar and the GI50 (SF-268; Homo sapiens, SF-268, 48 h, read-out: Log10 GI50 (converted)) was under 0.01 µM. The CC50 (SF-268; Homo sapiens, SF-268, 48 h, read-out: Log10 LC50 (converted)) was over 100 µM, the “Log10 TGI” value (SF-268; SF-268 (CNS Cancer), PG=0, 48 hour incubation) was −4.95 molar and the “Log10 TGI” value (ACHN; ACHN (Renal Cancer), PG=0, 48 hour incubation) was over −4.00 molar. For the same molecule, the GI50 (ACHN; Homo sapiens, ACHN, 48 h, read-out: Log10 GI50 (converted)) was 0.0955 µM, the CC50 (ACHN; Homo sapiens, ACHN, 48 h, read-out: Log10 LC50 (converted)) was over 100 µM and the GI50 (SNB-75; Homo sapiens, SNB-75, 48 h, read-out: Log10 GI50 (converted)) was under 0.01 µM. The CC50 (SNB-75; Homo sapiens, SNB-75, 48 h, read-out: Log10 LC50 (converted)) was over 100 µM, the “Log10 TGI” value (SNB-75; SNB-75 (CNS Cancer), PG=0, 48 hour incubation) was −7.41 molar and the GI50 (MAXF 401; Homo sapiens, MAXF401, PG=+50, read-out: Log10 GI50 (converted)) was under 0.01 µM. For the same molecule, the “Log10 TGI” value (MAXF 401; PG=0) was under −8.00 molar, the GI50 (NCI-H23; Homo sapiens, NCI-H23, 48 h, read-out: Log10 GI50 (converted)) was under 0.01 µM and the CC50 (NCI-H23; Homo sapiens, NCI-H23, 48 h, read-out: Log10 LC50 (converted)) was 45.7 µM. The “Log10 TGI” value (NCI-H23; NCI-H23 (Non-Small Cell Lung Cancer), PG=0, 48 hour incubation) was −4.86 molar, the GI50 (SK-MEL-5; Homo sapiens, SK-MEL-5, 48 h, read-out: Log10 GI50 (converted)) was under 0.01 µM and the CC50 (SK-MEL-5; Homo sapiens, SK-MEL-5, 48 h, read-out: Log10 LC50 (converted)) was over 100 µM. The “Log10 TGI” value (SK-MEL-5; SK-MEL-5 (Melanoma), PG=0, 48 hour incubation) was −4.56 molar.
For `CC(=O)O[C@H]1C(=O)[C@@]2(C)[C@H]([C@H](OC(=O)c3ccccc3)[C@]3(O)C[C@H](OC(=O)[C@H](O)[C@@H](NC(=O)c4ccccc4)c4ccccc4)C(C)=C1C3(C)C)[C@]1(OC(C)=O)CO[C@@H]1C[C@@H]2O` [Paclitaxel, paclitaxel, reference compound], the “Log10 LC50” value (CCRF-CEM) was over −4.00 molar and the “Log10 LC50, Range” value [1] was 0.45.

Source: patent US6753345B2, “7-hexanolytaxol and methods for preparing the same” (Hauser, Inc., priority 1998, dated 2004)
